In brackets after ≈: the same amount, converted by molar mass.
How the values were obtained:
[1] = system: DT-R cells (pRRE3-luc-transfected v-ki-ras-transformed NIH3T3 cells); signal derived from Ras oncogene products; experiment: Inhibitory effect against cellular signaling derived from Ras oncogene products: luciferase reporter, dissociation of DT-R from DT-C activity (MAC); assay type: cell-based, mouse; conditions: minimal tested concentration at which luciferase activities of DT-C cells and DT-R cells dissociated
Text: Test Example 1 Inhibitory Effect Against Cellular Signaling Derived From Ras Oncogene Products
1) Establishment of Cell Lines Used in Assay
Based on the reporter plasmid (pGV-P (Toyo Ink, Japan)), in which luciferase gene was ligated to SV40-derived minimal promoter, we constructed a plasmid designated pRRE3-luc by inserting 3 copies of chemically synthesized oligonucleotides (Sequence: CAGGATATGACTCT, derived from mouse NVL-3 (M. A. Reddy et al.(1992)Mol. Endocrinol., 6, 1051)) into upstream of the promoter. v-ki-ras-transformed NIH3T3 cells (DT cells, provided by Dr. Makoto Noda (Kyoto Univ., School of medicine)) were transfected with this plasmid by liposome-mediated transfection and transfected cell lines stably incorporated and maintained each plasmid were obtained. We named pGV-P and pRRE3-transfected cell line as DT-C and DT-R, respectively and used in the assay described below.
2) Preparation of Samples
i) All the cell lines were cultured in Dulbecco's Modified Essential Medium (DMEM: 10% Fetal Calf Serum(FCS: Hyclone, USA)) including […] kanamycin (Meiji Seika, Japan) in humidified incubator under condition of 5% CO2 at 37° C.
ii) DT-C and DT-R cells were seeded at 2500 cells/well into flat-bottom 96 well multiplate (Sumitomo bakelite) and incubated for 24 hours.
iii) Test compounds were prepared as 1 mg/ml DMSO solution.
iv) The solution of test compounds were added to the culture. Tested compounds are used at the concentration from […] to 0.51 ng/ml with by 3-fold dilution.
v) After 24 hours, the culture supernatant was completely aspirated and […] of cell-lysing solution (PGC-50 (Toyo Ink, Japan)) was added before cells were dried up. In order to the cells were lysed completely, multiwell plates were left at room temperature for 10 to 30 min. The plates were wrapped up and stored at −20° C. till the day of measurement.
3) Measurement of Samples
i) Melt the samples by putting 96 well multiplate at 37° C. and add 90 μl/well 25 mM Tris (pH 7.5).
ii) Transfer 50 μl of the sample (110 μl) to the 96 well microplate for measurement (Microlite 1 (Dynatech)).
iii) Measure the samples by the luminometer, LUMINOUS CT9000D (Dia-Yatron, Japan). We used Pickagene luminescence kit PGL2000 or LT2.0 (Toyo Ink, Japan) as substrates for luminescence measurement (50 μl/well).
4) Judgment of the Results
i) The luciferase activity of DT-C cells and DT-R cells were plotted in the graph where the relative activity and the compound concentration were expressed as Y-axis and X-axis, respectively. We judged by the degree of dissociation between the activities of DT-C cells and DT-R cells as an index.
ii) Concretely, efficacy of the compound was expressed by two values described below.
a) Among the points of concentration tested, the minimal concentration (Minimal Active Concentration: MAC), at which the activities of DT-C cells and DT-R cells dissociated, was shown as an index of efficacy of the compound.

human colon cancer HT29 = experiment: In vitro cell growth inhibition test, MTT assay; assay type: cell-based; conditions: MTT assay 4 days after compound addition
Text: (§1) Test Example 2 In Vitro Cell Growth Inhibition Test Cells and MTT Assay
(§2) Human squamous lung cancer […], human squamous lung cancer Ma44, human lung adenocarcinoma A549, human colon cancer HT29 and human pancreas cancer PANC-1 were used.

[2] = system: human squamous lung cancer RERF-RC-AI; experiment: In vitro cell growth inhibition test, MTT assay; assay type: cell-based; conditions: MTT assay 4 days after compound addition
Text: as §1, §2

[3] = system: human lung adenocarcinoma A549; experiment: In vitro cell growth inhibition test, MTT assay; assay type: cell-based; conditions: MTT assay 4 days after compound addition
Text: as §1, §2

[4] = system: human pancreas cancer PANC-1; experiment: In vitro cell growth inhibition test, MTT assay; assay type: cell-based; conditions: MTT assay 4 days after compound addition
Text: as §1, §2

[5] = system: human squamous lung cancer Ma44; experiment: In vitro cell growth inhibition test, MTT assay; assay type: cell-based; conditions: MTT assay 4 days after compound addition
Text: as §1, §2

SMILES	MAC (Minimal Active Concentration) [1] [µg/mL]	IC50, HT29 (human colon cancer HT29) [µg/mL]	IC50, RERF-LC-AI [2] [µg/mL]	IC50, A549 [3] [µg/mL]	IC50, PANC-1 [4] [µg/mL]	IC50, Ma44 [5] [µg/mL]
CNC(=Nc1nc(C)ncc1CSc1nnc(-c2ccccc2N)o1)NC [Compound A-70]	0.123	0.0084 (≈ 0.0218 µM)	0.0067 (≈ 0.0174 µM)	0.013 (≈ 0.0338 µM)	0.015 (≈ 0.039 µM)	0.032 (≈ 0.0832 µM)
CCNC(=Nc1nc(C)ncc1CSc1nnc(-c2ccccc2Cl)o1)NCC [Compound A-77]	–	0.044 (≈ 0.102 µM)	0.03 (≈ 0.0695 µM)	0.13 (≈ 0.301 µM)	0.048 (≈ 0.111 µM)	0.11 (≈ 0.255 µM)
CCNC(=Nc1nc(C)ncc1CSc1nnc(-c2ccccc2C)o1)NCC [Compound A-78]	–	0.021 (≈ 0.051 µM)	0.017 (≈ 0.0413 µM)	0.063 (≈ 0.153 µM)	0.037 (≈ 0.0899 µM)	0.052 (≈ 0.126 µM)
CCNC(=Nc1nc(C)ncc1CSc1nnc(-c2ccc(C(=O)c3ccccc3)cc2)o1)NCC [Compound A-84]	–	0.38 (≈ 0.758 µM)	0.18 (≈ 0.359 µM)	0.44 (≈ 0.877 µM)	0.3 (≈ 0.598 µM)	0.41 (≈ 0.817 µM)
CCNC(=Nc1nc(C)ncc1CSc1nnc(-c2ccc(OCC)cc2)o1)NCC [Compound A-101]	–	0.052 (≈ 0.118 µM)	–	0.79 (≈ 1.79 µM)	0.077 (≈ 0.174 µM)	0.21 (≈ 0.476 µM)
CCNC(=Nc1nc(C)ncc1CSc1nnc(-c2ccc(I)cc2)o1)NCC [Compound A-105]	–	0.064 (≈ 0.122 µM)	–	0.11 (≈ 0.21 µM)	0.086 (≈ 0.164 µM)	0.091 (≈ 0.174 µM)
CCNC(=Nc1nc(C)ncc1CSc1nnc(-c2ccccc2)o1)NCC [Compound A-107]	0.370	0.036 (≈ 0.0906 µM)	–	0.065 (≈ 0.164 µM)	0.052 (≈ 0.131 µM)	0.055 (≈ 0.138 µM)
Cc1ncc(CSc2nnc(-c3ccc([N+](=O)[O-])cc3)o2)c(N=C(NCC(C)C)NCC(C)C)n1 [Compound A-129]	–	0.3 (≈ 0.602 µM)	0.17 (≈ 0.341 µM)	0.43 (≈ 0.862 µM)	0.21 (≈ 0.421 µM)	0.33 (≈ 0.662 µM)
CCNC(=Nc1nc(C)ncc1CSc1nnc(-c2c[nH]nc2N)o1)NCC [Compound D-7]	–	0.18 (≈ 0.447 µM)	0.083 (≈ 0.206 µM)	3.2 (≈ 7.95 µM)	2.4 (≈ 5.96 µM)	5.2 (≈ 12.9 µM)
CCNC(=Nc1ncncc1CSc1nnc(-c2cc[n+]([O-])cc2)o1)NCC [Compound D-42]	–	0.071 (≈ 0.177 µM)	0.082 (≈ 0.205 µM)	0.57 (≈ 1.42 µM)	0.17 (≈ 0.425 µM)	0.38 (≈ 0.949 µM)
CCNC(=Nc1ncncc1CSc1nnc(-c2csc([N+](=O)[O-])c2)o1)NCC [Compound D-43]	–	0.1 (≈ 0.23 µM)	0.21 (≈ 0.483 µM)	0.27 (≈ 0.621 µM)	0.1 (≈ 0.23 µM)	0.2 (≈ 0.46 µM)

— US6420367B1, “Pyrimidine derivatives exhibiting antitumor activity” (Shionogo & Co., Ltd., priority 1998, dated 2002)
